A word on the IC50: it is the concentration needed to halve the response being measured.

SMILES strings stand for the structures.

In patent publication US20240158392A1 (Janssen Biotech, Inc., priority 2021, published 2024) one finds IC50 data, which are given here for 27 compounds.

Chain of SIK2 (Q9H0K1 whole entry, species assumed): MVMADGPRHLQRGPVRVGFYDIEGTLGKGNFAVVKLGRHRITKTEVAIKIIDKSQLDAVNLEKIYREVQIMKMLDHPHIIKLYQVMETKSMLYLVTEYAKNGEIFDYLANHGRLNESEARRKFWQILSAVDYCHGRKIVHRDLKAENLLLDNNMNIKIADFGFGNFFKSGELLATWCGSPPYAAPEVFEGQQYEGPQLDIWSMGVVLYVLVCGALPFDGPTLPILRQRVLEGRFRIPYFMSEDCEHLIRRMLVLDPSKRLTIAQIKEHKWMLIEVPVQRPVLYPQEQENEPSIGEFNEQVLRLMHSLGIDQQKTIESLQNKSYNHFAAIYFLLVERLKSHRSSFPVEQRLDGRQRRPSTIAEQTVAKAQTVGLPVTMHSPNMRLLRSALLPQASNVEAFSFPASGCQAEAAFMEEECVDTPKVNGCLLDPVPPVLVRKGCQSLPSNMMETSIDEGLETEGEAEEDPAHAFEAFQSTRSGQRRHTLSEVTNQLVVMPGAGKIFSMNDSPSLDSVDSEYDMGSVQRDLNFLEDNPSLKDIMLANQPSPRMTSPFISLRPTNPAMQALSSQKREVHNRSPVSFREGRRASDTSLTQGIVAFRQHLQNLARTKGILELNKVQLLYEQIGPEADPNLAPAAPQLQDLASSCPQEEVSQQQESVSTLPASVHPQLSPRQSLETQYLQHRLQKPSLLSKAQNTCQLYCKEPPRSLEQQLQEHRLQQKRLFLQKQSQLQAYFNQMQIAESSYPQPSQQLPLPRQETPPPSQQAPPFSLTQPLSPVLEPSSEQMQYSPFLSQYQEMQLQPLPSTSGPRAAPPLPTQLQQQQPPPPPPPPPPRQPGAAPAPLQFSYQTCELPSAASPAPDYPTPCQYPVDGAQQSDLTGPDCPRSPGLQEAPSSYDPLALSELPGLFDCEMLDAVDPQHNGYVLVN

One assay addresses SIK2 (Homo sapiens, UniProt Q9H0K1). Kind of assay: SIK2 Enzymatic Assay High Version 2 (High ATP). The assay is classed as biochemical.
Settings: not given
The method, boiled down: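 At room temperature, enzyme (6 nM, 2× final) was preincubated with compound for 30 min, then 6 mM ATP and 400 μM HDAC5tide (both 2× final) were added for 2 h. ADP formed was measured by ADP-Glo Max (2 h reagent, 1 h detection) using luminescence.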
Compound `Cc1cc(-c2ccn3nc(Nc4ccnc(C)n4)cc3c2)c(O[C@H]2C[C@H]3COC[C@@H](C2)N3)cn1` [Example 372, 5-[2-methyl-5-[[(1S,5R,7s)-3-oxa-9-azabicyclo[3.3.1]nonan-7-yl]oxy]-4-pyridyl]-N-(2-methylpyrimidin-4-yl)pyrazolo[1,5-a]pyridin-2-amine] returned an IC50 of less than 0.000847 µM. On the same count and under the same terms, the result for `Cc1cc(-c2ccn3nc(Nc4cc(C)nc(C)n4)cc3c2)c(OC[C@@H]2CCN2C)cn1` [Example 521, N-(2,6-dimethylpyrimidin-4-yl)-5-[2-methyl-5-[[(2S)-1-methylazetidin-2-yl]methoxy]-4-pyridyl]pyrazolo[1,5-a]pyridin-2-amine] reads 0.0607 µM.

The compound `Cc1cc(-c2ccn3nc(Nc4cn(C)nn4)cc3c2)c(O[C@H]2C[C@H]3COC[C@@H](C2)N3C)cn1` [Example 414, 5-[2-methyl-5-[[(1R,5S,7s)-9-methyl-3-oxa-9-azabicyclo[3.3.1]nonan-7-yl]oxy]-4-pyridyl]-N-(1-methyltriazol-4-yl)pyrazolo[1,5-a]pyridin-2-amine] showed an IC50 of 0.0152 µM. For `Cc1cc(-c2ccn3nc(Nc4cc(C(F)(F)F)nn4C)cc3c2)c(O[C@H]2C[C@H]3COC[C@@H](C2)N3C)cn1` [Example 174, N-(1-methyl-3-(trifluoromethyl)-1H-pyrazol-5-yl)-5-(2-methyl-5-(((1R,5S,7s)-9-methyl-3-oxa-9-azabicyclo[3.3.1]nonan-7-yl)oxy)pyridin-4-yl)pyrazolo[1,5-a]pyridin-2-amine], the IC50 is 0.108 µM. The same measure, in the same setting: the same measure for `CC(=O)N1[C@@H]2COC[C@H]1C[C@@H](Oc1cnc(C)cc1-c1ccn3nc(Nc4cc(C(F)(F)F)ccn4)cc3c1)C2` [Example 632, 1-((1R,5S,7s)-7-((6-methyl-4-(2-((4-(trifluoromethyl)pyridin-2-yl)amino)pyrazolo[1,5-a]pyridin-5-yl)pyridin-3-yl)oxy)-3-oxa-9-azabicyclo[3.3.1]nonan-9-yl)ethan-1-one]: 0.00121 µM. With `CC#Cc1cc(-c2ccn3nc(NC(=O)C4CC4)cc3c2)c(O[C@H]2C[C@H]3COC[C@@H](C2)N3)cn1` [Example 436, N-[5-[5-[[(1S,5R)-3-oxa-9-azabicyclo[3.3.1]nonan-7-yl]oxy]-2-prop-1-ynyl-4-pyridyl]pyrazolo[1,5-a]pyridin-2-yl]cyclopropanecarboxamide], the IC50 was less than 0.000847 µM. Take `Cc1cc(-c2ccn3nc(Nc4cn(CC(C)(C)O)nc4C(=O)C(F)(F)F)cc3c2)c(O[C@H]2C[C@H]3COC[C@@H](C2)N3)cn1` [Example 122, 1-(4-((5-(5-(((1R,5S,7s)-3-oxa-9-azabicyclo[3.3.1]nonan-7-yl)oxy)-2-methylpyridin-4-yl)pyrazolo[1,5-a]pyridin-2-yl)amino)-1-(2-hydroxy-2-methylpropyl)-1H-pyrazol-3-yl)-2,2,2-trifluoroethan-1-one]: half-maximal inhibition (IC50) was put at 2.43 µM.

Take `Cc1cc(-c2ccn3nc(Nc4cncnc4)cc3c2)c(O[C@H]2C[C@H]3COC[C@@H](C2)N3C)cn1` [Example 415, 5-[2-methyl-5-[[(1S,5R,7s)-9-methyl-3-oxa-9-azabicyclo[3.3.1]nonan-7-yl]oxy]-4-pyridyl]-N-pyrimidin-5-yl-pyrazolo[1,5-a]pyridin-2-amine]: the IC50 is less than 0.000847 µM.

The assay is the same for the next values; noted with them: enzyme 6 nM, 6 mM ATP and 400 μM HDAC5tide (each 2× final concentration); 30 minutes pre-incubation, 2 hours; ADP-Glo Max luminescence; read-out: SIK2 high ATP IC50 (μM) (Test Example 2).
Consider `COc1cc(Nc2cc3cc(-c4cc(C)ncc4O[C@H]4CC[C@H](O)CC4)ccn3n2)cc(OC(F)F)c1C(=O)NC1CC1` [Example 333, N-cyclopropyl-2-(difluoromethoxy)-4-[[5-[5-(4-hydroxycyclohexoxy)-2-methyl-4-pyridyl]pyrazolo[1,5-a]pyridin-2-yl]amino]-6-methoxy-benzamide], for which the IC50 was determined as 0.0448 µM. For `N#Cc1cc(-c2ccn3nc(NC(=O)C4CC4)cc3c2)c(OC[C@H]2C[C@@H](NCc3ccccc3)C2)cn1` [Example 599, N-[5-[5-[[3-(benzylamino)cyclobutyl]methoxy]-2-cyano-4-pyridyl]pyrazolo[1,5-a]pyridin-2-yl]cyclopropanecarboxamide], the IC50 came out at 0.141 µM. The same measure, in the same setting: the result for `Cc1cc(-c2ccn3nc(Nc4cc(C(=O)N(C)C)cc(C)n4)cc3c2)c(OCC(C)(C)O)cn1` [Example 633, 2-[[5-[5-(2-hydroxy-2-methyl-propoxy)-2-methyl-4-pyridyl]pyrazolo[1,5-a]pyridin-2-yl]amino]-N,N,6-trimethyl-pyridine-4-carboxamide] reads 0.105 µM. Consider `Cc1cc(-c2ccn3nc(NC(=O)C4CC4)cc3c2)c(O[C@H]2CCNC2)cn1` [Example 277, N-[5-[2-methyl-5-[(3S)-pyrrolidin-3-yl]oxy-4-pyridyl]pyrazolo[1,5-a]pyridin-2-yl]cyclopropanecarboxamide], for which the IC50 was found to be 0.0139 µM. Take `Cc1cc(-c2ccn3nc(Nc4cc(C)c(=O)n(CC5CC5)n4)cc3c2)c(OCC(C)(C)O)cn1` [Example 265, 2-(cyclopropylmethyl)-6-[[5-[5-(2-hydroxy-2-methyl-propoxy)-2-methyl-4-pyridyl]pyrazolo[1,5-a]pyridin-2-yl]amino]-4-methyl-pyridazin-3-one]: the IC50 was 0.00366 µM.

Consider `Cc1cc(Nc2cc3cc(-c4cc(OC(F)F)ncc4OCC(C)(C)C#N)ccn3n2)ncn1` [Example 685, 3-[[6-(difluoromethoxy)-4-[2-[(6-methylpyrimidin-4-yl)amino]pyrazolo[1,5-a]pyridin-5-yl]-3-pyridyl]oxy]-2,2-dimethyl-propanenitrile], for which the 50% inhibitory concentration (IC50) turned out to be 0.0312 µM. Still for that read-out and setting: the same measure for `CNc1nc(C)cc(Nc2cc3cc(-c4cc(C)ncc4O[C@H]4CC[C@H](O)CC4)ccn3n2)n1` [Example 227, (1r,4r)-4-((6-methyl-4-(2-((6-methyl-2-(methylamino)pyrimidin-4-yl)amino)pyrazolo[1,5-a]pyridin-5-yl)pyridin-3-yl)oxy)cyclohexan-1-ol]: less than 0.000847 µM; for `Cc1cc(-c2ccn3nc(Nc4cc(C)nc(N5CCOCC5)n4)cc3c2)c(OCC(C)(C)O)cn1` [Example 286, 2-methyl-1-[[6-methyl-4-[2-[(6-methyl-2-morpholino-pyrimidin-4-yl)amino]pyrazolo[1,5-a]pyridin-5-yl]-3-pyridyl]oxy]propan-2-ol]: 0.0166 µM; for `Cc1cc(Nc2cc3cc(-c4cc(C(F)(F)F)ncc4OCC(C)(C)C#N)ccn3n2)nc(C)n1` [Example 494, 3-[[4-[2-[(2,6-dimethylpyrimidin-4-yl)amino]pyrazolo[1,5-a]pyridin-5-yl]-6-(trifluoromethyl)-3-pyridyl]oxy]-2,2-dimethyl-propanenitrile]: 0.00254 µM.

In the case of `COC1(COc2cnc(C)cc2-c2ccn3nc(NC(=O)C4CC4)cc3c2)CNC1` [Example 233, N-[5-[5-[(3-methoxyazetidin-3-yl)methoxy]-2-methyl-4-pyridyl]pyrazolo[1,5-a]pyridin-2-yl]cyclopropanecarboxamide], the IC50 was found to be 0.00309 µM. On the same count and under the same terms, the result for `COc1ccccc1COc1cnc(C)cc1-c1ccn2nc(Nc3cc(C)nc(C)n3)cc2c1` [Example 271, N-(2,6-dimethylpyrimidin-4-yl)-5-[5-[(2-methoxyphenyl)methoxy]-2-methyl-4-pyridyl]pyrazolo[1,5-a]pyridin-2-amine] reads 0.0234 µM. In the case of `CC(C)(C#N)COc1cnc(OC(F)F)cc1-c1ccn2nc(Nc3cccnc3)cc2c1` [Example 694, 3-[[6-(difluoromethoxy)-4-[2-(3-pyridylamino)pyrazolo[1,5-a]pyridin-5-yl]-3-pyridyl]oxy]-2,2-dimethyl-propanenitrile], the IC50 came out at 0.0195 µM. For the compound `COc1cc(Nc2cc3cc(-c4cc(C)ncc4O[C@H]4CC[C@H](O)CC4)ccn3n2)cc(OC)c1` [Example 645, (1r,4r)-4-((4-(2-((3,5-dimethoxyphenyl)amino)pyrazolo[1,5-a]pyridin-5-yl)-6-methylpyridin-3-yl)oxy)cyclohexan-1-ol], the IC50 was found to be 0.325 µM. Same read-out and setting: the result for `Cc1cc(Nc2cc3cc(-c4cc(OCC#N)ncc4OC[C@H]4OCC[C@@H]4O)ccn3n2)nc(C)n1` [Example 500, 2-[[4-[2-[(2,6-dimethylpyrimidin-4-yl)amino]pyrazolo[1,5-a]pyridin-5-yl]-5-[[(2R,3S)-3-hydroxytetrahydrofuran-2-yl]methoxy]-2-pyridyl]oxy]acetonitrile] reads 0.0454 µM; that for `CC(C)(C#N)COc1cnc(Cl)cc1-c1ccn2nc(NC(=O)C3CC3)cc2c1` [Example 666, N-[5-[2-chloro-5-(2-cyano-2-methyl-propoxy)-4-pyridyl]pyrazolo[1,5-a]pyridin-2-yl]cyclopropanecarboxamide], 0.0555 µM; that for `Cc1cc(Nc2cc3cc(-c4cc(Cl)ncc4OC[C@@H]4CNCCO4)ccn3n2)nc(C)n1` [Example 497, 5-[2-chloro-5-[[(2S)-morpholin-2-yl]methoxy]-4-pyridyl]-N-(2,6-dimethylpyrimidin-4-yl)pyrazolo[1,5-a]pyridin-2-amine], 0.0176 µM. The same measure, in the same setting: the result for `Cc1cc(-c2ccn3nc(Nc4cnn(C)c4)cc3c2)c(O[C@H]2CC[C@](C)(O)CC2)cn1` [Example 163, (1r,4r)-1-methyl-4-((6-methyl-4-(2-((1-methyl-1H-pyrazol-4-yl)amino)pyrazolo[1,5-a]pyridin-5-yl)pyridin-3-yl)oxy)cyclohexan-1-ol] reads 0.00795 µM; that for `Cc1cc(-c2ccn3nc(NC(=O)C4CC4)cc3c2)c(OC[C@@]2(F)CCNC2)cn1` (single isomer, unassigned) [Example 447, (*R)—N-[5-[5-[(3-fluoropyrrolidin-3-yl)methoxy]-2-methyl-4-pyridyl]pyrazolo[1,5-a]pyridin-2-yl]cyclopropanecarboxamide], 0.0246 µM; that for `Cc1cc(Nc2cc3cc(-c4cc(OC(F)F)ncc4O[C@H]4CC[C@H](O)CC4)ccn3n2)nc(C)n1` [Example 677, (1r,4r)-4-[[6-(difluoromethoxy)-4-[2-[(2,6-dimethylpyrimidin-4-yl)amino]pyrazolo[1,5-a]pyridin-5-yl]-3-pyridyl]oxy]cyclohexanol], 0.000935 µM.
